This is an account of results in US9561220B2, “Group of alkaloids, the novel autophagic enhancers for treatment of cancers and neurodegenerative conditions thereof” (Macau University of Science and Technology, priority 2014, dated 2017).

This assay relates to panel of human cancer cells (HeLa, MCF-7, HepG2, Hep3B, H1299, A549, PC3). Briefly: cells. It counts as cell-based. The note with it: Homo sapiens, 72 h, read-out: mean IC50 value (cell cytotoxicity). As to the method: The test compounds of liensinine, isoliensinine, dauricine, cepharanthine, hernandezine and thalidezine were dissolved in DMSO at a final concentration of 100 mmol/L and stored at −20° C. Cytotoxicity was assessed using the 3-(4,5-dimethylthiazol-2-yl)-2,5-diphenyltetrazolium bromide assay as described previously. 4000-8000 HeLa (human cervical cancer), MCF-7 (human breast cancer), HepG2 (human liver cancer), Hep3B (human liver cancer), H1299 (human lung cancer), A549 (human lung cancer), PC3 (human prostate cancer) and LO2 (human normal liver) cells were seeded on 96-well plates per well. After overnight pre-incubation, the cells were exposed to different concentrations of liensinine, isoliensinine, dauricine, cepharanthine, hernandezine and thalidezine (0.039-100 μmol/L) for 3 days. Specifically, the following concentrations are used for all of the above alkaloids: […], 0.039 μmol/L. Subsequently, 10 μL of MTT reagents was added to each well and incubated at 37° C. for 4 hours followed by the addition of 100 μL solubilization buffer (10% SDS in 0.01 mol/L HCl) and overnight incubation. Absorbance at 585 nm was determined from each well on the following day. The percentage of cell viability was calculated using the following formula: Cell viability (%)=Cells number treated/Cells number DMSO control×100. Data was obtained from three independent experiments.

Structures are written as SMILES.

What is called IC50 is the concentration that gives 50% inhibition. Consider `COc1ccc2cc1Oc1ccc(cc1)C[C@H]1c3c(cc4c(c3Oc3cc5c(cc3OC)CCN(C)[C@@H]5C2)OCO4)CCN1C` [cepharanthine], for which the half-maximal inhibitory concentration (IC50) was in the range of 4.52 to 61.8 µM.
